Experimental data from paper PMC6377810 (ACS chemical biology, 2018).
Like-named read-outs stand apart in the source and are kept apart here.

What was measured:
[1] = target: T1, Hsc70 (Homo sapiens, UniProt P11142); test: direct binding by quench of compound fluorescence
[2] = target: T1, Hsc70; test: direct binding by quench of compound fluorescence; remark: listed apart in the source
[3] = target: Hsp72 (Homo sapiens) (UniProt P0DMV8); conditions: cited from earlier work
[4] = target: Hsp72 (Homo sapiens) (UniProt P0DMV8); conditions: cited from earlier work; remark: listed apart in the source
[5] = target: T1, Hsc70; test: malachite green ATP turnover assay; type: biochemical

T1 sequence (P11142 whole entry): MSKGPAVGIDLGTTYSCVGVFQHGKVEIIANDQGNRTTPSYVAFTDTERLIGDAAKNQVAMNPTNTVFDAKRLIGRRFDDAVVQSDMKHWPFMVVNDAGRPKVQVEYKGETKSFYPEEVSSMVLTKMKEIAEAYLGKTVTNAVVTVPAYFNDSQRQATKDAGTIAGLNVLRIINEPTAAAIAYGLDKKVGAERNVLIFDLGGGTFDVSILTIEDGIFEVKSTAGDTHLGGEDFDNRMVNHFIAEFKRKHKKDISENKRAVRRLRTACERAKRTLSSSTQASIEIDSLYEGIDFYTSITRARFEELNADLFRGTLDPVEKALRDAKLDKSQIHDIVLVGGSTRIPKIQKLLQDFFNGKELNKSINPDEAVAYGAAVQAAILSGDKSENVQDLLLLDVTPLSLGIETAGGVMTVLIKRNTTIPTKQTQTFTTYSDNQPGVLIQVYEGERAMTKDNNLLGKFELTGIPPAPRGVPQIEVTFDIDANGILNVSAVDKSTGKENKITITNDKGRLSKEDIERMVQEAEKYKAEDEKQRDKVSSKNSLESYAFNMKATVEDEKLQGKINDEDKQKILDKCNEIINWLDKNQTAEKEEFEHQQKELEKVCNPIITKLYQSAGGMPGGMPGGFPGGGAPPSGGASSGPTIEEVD
Hsp72 (Homo sapiens), sequence (P0DMV8 2-641): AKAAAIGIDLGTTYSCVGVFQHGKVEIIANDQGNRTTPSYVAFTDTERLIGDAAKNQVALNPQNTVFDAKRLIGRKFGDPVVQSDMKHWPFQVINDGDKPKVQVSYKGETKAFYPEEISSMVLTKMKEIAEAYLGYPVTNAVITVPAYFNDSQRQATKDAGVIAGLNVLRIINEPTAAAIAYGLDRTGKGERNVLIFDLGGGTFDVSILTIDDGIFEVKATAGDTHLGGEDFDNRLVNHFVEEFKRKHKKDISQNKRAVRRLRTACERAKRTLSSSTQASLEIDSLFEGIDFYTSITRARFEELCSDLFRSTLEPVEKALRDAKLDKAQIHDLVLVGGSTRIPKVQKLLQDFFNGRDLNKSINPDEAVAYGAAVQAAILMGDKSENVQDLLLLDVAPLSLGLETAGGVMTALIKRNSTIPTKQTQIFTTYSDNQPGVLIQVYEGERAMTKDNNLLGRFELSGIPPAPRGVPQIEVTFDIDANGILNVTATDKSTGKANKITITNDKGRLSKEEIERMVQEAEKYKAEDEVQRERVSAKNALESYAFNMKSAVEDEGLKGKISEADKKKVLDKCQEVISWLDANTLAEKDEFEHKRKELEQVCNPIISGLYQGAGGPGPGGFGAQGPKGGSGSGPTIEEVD
BAG1, sequence (Q99933 whole entry): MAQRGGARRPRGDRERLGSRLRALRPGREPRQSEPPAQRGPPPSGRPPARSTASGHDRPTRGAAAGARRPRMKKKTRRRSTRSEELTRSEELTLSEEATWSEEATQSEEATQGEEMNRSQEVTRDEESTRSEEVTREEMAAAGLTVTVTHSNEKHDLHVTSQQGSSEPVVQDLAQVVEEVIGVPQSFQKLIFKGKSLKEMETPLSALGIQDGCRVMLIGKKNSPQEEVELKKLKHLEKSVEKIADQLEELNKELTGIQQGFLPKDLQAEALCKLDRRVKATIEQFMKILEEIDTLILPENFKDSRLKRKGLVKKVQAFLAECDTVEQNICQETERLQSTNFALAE

Compound `CCn1c(=O)/c(=C2\Sc3cc(Cl)ccc3N2C)s/c1=C\c1scc[n+]1Cc1ccc(C(F)(F)F)cc1` [JG-118, 2-((Z)-((E)-5-(6-chloro-3-methylbenzo[d]thiazol-2(3H)-ylidene)-3-ethyl-4-oxothiazolidin-2-ylidene)methyl)-3-(4-(trifluoromethyl)benzyl)thiazol-3-ium chloride] has a Kd [1] of ~2600 nM.
Compound `CCn1c(=O)/c(=C2\Sc3cc(Cl)ccc3N2C)s/c1=C\c1scc[n+]1Cc1ccccc1OC(F)F` [JG-237, 2-((Z)-((E)-5-(6-chloro-3-methylbenzo[d]thiazol-2(3H)-ylidene)-3-ethyl-4-oxothiazolidin-2-ylidene)methyl)-3-(2-(difluoromethoxy)benzyl)thiazol-3-ium chloride] has a Kd [2] of 1500 ± 300 nM.
Work on `CCn1c(=O)/c(=C2\Sc3cc(Cl)ccc3N2C)s/c1=C\c1scc[n+]1Cc1cccc(C(F)(F)F)c1` [JG-115, 2-((Z)-((E)-5-(6-chloro-3-methylbenzo[d]thiazol-2(3H)-ylidene)-3-ethyl-4-oxothiazolidin-2-ylidene)methyl)-3-(3-(trifluoromethyl)benzyl)thiazol-3-ium chloride] yielded a Kd [1] of ~3100 nM.
In the case of BAG1 (from UniProt Q99933), the Kd [3] is given as 36 nM and the Kd [4] is given as 8 nM.
In the case of `Nc1ncnc2c1ncn2[C@@H]1O[C@H](COP(=O)(O)OP(=O)(O)OP(=O)(O)O)[C@@H](O)[C@H]1O` [ATP], the “malachite green ATP turnover assay; partial proteolysis in the ATP-bound state” value [5] is reported as ~ 2 pmol/µM Hsc70/min.
